Laboratory results from patent US8314255B2, “Use of phthalimide and/or sulphonamide derivatives in the treatment of diseases which require reducing the TNF- α levels and an exogenous source of nitric oxide, phthalimide derivatives, sulphonamide derivatives, and a method for obtaining a sulphonamide derivative” (priority 2007, dated 2012).

Columns and labels:
[1] = tested on: mouse ear edema induced by capsaicin; assay: Mouse ear edema assay induced by capsaicin; format: in vivo; settings: 300 μmol/Kg i.p., capsaicin 250 μg/ear 1 hour after administration
Description: This assay is characterized by an acute inflammatory response of the ear, with development of edema, and it was performed in order to evaluate the anti-inflammatory activity of the synthesized compounds.
In this assay, indomethacin was used as a control at 100 μmol/Kg, and the phthalimide derivatives were firstly evaluated at 300 μmol/Kg via i.p. From table 4, it can be observed that compounds IC and IE show an ear edema inhibition percentage higher than 64%. […] The other compounds, however, show a similar activity when compared to indomethacin (FIG. 01), taking into consideration the standard error.
This assay was performed using Swiss mice from both genders weighing from 18 to 30 grams. The animals were fasted for 8 hours with free access to water. This assay consists in locally administering (right ear) 20 μl of a capsaicin solution (250 μg/ear) diluted in acetone, 1 hour after the i.p. administration (diluted in 0.5% gum arabic). The left ear (control) received the carrier in which capsaicin was diluted (acetone) and the right ear received capsaicin. This assay is characterized by an acute inflammatory response of the ear, with development of edema. The animals were sacrificed and their ears were weighted to obtain the inflammation index. A biopsy (8 mm in diameter) of the ear was carried out. Next, the weights of the inflamed ears were compared against the weights of the contralateral ear (control ear) which were not treated with the phlogistic agent. The edema inhibition percentage was calculated by subtracting the ear treated with the carrier by that treated with capsaicin from each group of animals treated with the test substances, and then it was divided by the difference between the groups of the irritating agents and the control groups.

[2] = tested on: Salmonella typhimurium TA100; assay: AMES test, mutagenic evaluation in Salmonella typhimurium TA100 strain with/without metabolic activation (S9); format: cell-based
Description: (§1) The procedure was firstly developed by (MARON, D. M. and AMES, B. N. Mut. Res. v. 113, pp. 173-215, 1983)
(§2) For this assay, Salmonella typhimurium TA100 and TA102 strains from the mutagenicity laboratory of the “Faculdade de Ciências Farmacêuticas—UNESP Araraquara” were used. Such strains have the following characteristics: (AMES, 1983)
(§3) The positive controls are mutagenic compounds specific for each strain and test condition, with 25 μL/plate of sodium azide (1.25 μg/plate) and 100 μL of mitomycin (0.5 μg/plate) being the controls for TA100 and TA102, respectively, in the absence of metabolic activation. For assays with metabolic activation, the positive control for TA100 is 50 μL 2-antramine (1.25 μg/plate) and for TA102 it is 50 μL 2-aminofluorene (1.25 μg/plate).
(§4) The preincubation method was used.
(§5) In laminar flow, Salmonella typhimurium (TA100 and TA 102) strains were inoculated individually with a platinum loop, in the respective nutrient broths and maintained at 37° C., under constant stirring (160 rpm) during 14 hours, in order to achieve a density of 1 to 2×10^9 bacteria/mL.
(§6) Different concentrations of the compounds were added into 100 μL of 0.2M phosphate buffer pH 7.4 (or 500 μL of the mixture S9 in metabolic activation assays) and incubated for 20-30 minutes at 37° C. Solutions containing the compounds had DMSO as the solvent. Thereafter, 2 mL of top agar supplemented with traces of histidine and biotin was added, homogenized and plated in glycosylated minimum medium. After solidification of the top agar, the plates were incubated for 48 hours at a 37° C. Then, the counting of the number of revertant colonies per plate was performed. All tested concentrations, positive and negative controls were run in triplicate.
(§7) After 48 hours, the revertant colonies were counted manually, and the protoCOL Colony Counter Version 3.15.630 (1998-2001) SYNBIOSIS LTD system was used for the positive control.
(§8) The final data obtained from the assay was analyzed using the statistical software Salanal (Salmonella Assay Analysis) version 1.0 from the Research Triangle Institute, RTP, North Carolina, USA. Such software allows the dose-response effect to be evaluated by means of analysis of variance (ANOVA-test F) computations between the measurement of the number of revertants at the different tested concentrations (doses) and the negative control, followed by a linear regression. The software model chosen for analyzing the data was Bernstein's (BERNSTEIN, L. et al. Mutat. Res. v. 97, p. 267-281, 1982). The slope of the straight line from the linear portion of the dose-response curve is also provided by this software and corresponds to the number of revertants induced per measurement unit of the analyzed sample.
(§9) From the results, the mutagenicity ratio (MR) was computed for each analyzed dose from each compound. MR is given by the following equation:
(§10) MR=average number of revertants per test plate (spontaneous+induced revertants) […] average number of revertants per plate of the negative control (spontaneous revertants)
(§11) The spontaneous growing means that the number of revertants which developed on the plate, regardless of being induced or not, wherein values higher or equal to 2 are considered as a positive response (VALENT, G. V. et al. Env. Toxicol. Water Quality. v. 8, p. 371-381, 1993).
(§12) The mutagenicity test with metabolic activation system was performed with a microsomal fraction S9 (S9 mix) prepared from a liver homogenizate from Sprague Dawley rats, previously treated with Aroclor 1254, acquired in the freeze-dried form.
(§13) The procedure for this assay is the same, however, instead of the buffer, 500 μL of the S9 mixture should be added.
(§14) The S9 mixture has a viability of 4 hours from preparation when put on ice. The plates are then incubated for 48 hours at 37° C. After the required time has elapsed, the counting of the revertant colonies was carried out. All tested concentrations, positive and negative controls were run in triplicate.

[3] = tested on: Salmonella typhimurium TA102; assay: AMES test, mutagenic evaluation in Salmonella typhimurium TA102 strain with/without metabolic activation (S9); format: cell-based
Description: as §1, §2, §3, §4, §5, §6, §7, §8, §9, §10, §11, §12, §13, §14

## Nc1ccc(S(=O)(=O)NO)cc1 [Compound IIA, 4-amino-N-hydroxybenzenesulphonamide]
[1]
  Average inhibition % (ear edema): 49.24%
[2]; TA 100, +S9, 0.98 μmol/plate
  mutagenicity ratio (MR): 1.24
  number of revertants per plate: 160 ± 12.4 revertants/plate
[2]; TA 100, +S9, 1.96 μmol/plate
  mutagenicity ratio (MR): 1.36
  number of revertants per plate: 175.7 ± 2 revertants/plate
[2]; TA 100, +S9, 3.92 μmol/plate
  mutagenicity ratio (MR): 1.43
  number of revertants per plate: 185.3 ± 15 revertants/plate
[2]; TA 100, +S9, 7.85 μmol/plate
  mutagenicity ratio (MR): 1.59
  number of revertants per plate: 206 ± 13.6 revertants/plate
[2]; TA 100, +S9, 15.7 μmol/plate
  mutagenicity ratio (MR): 2.74
  number of revertants per plate: 354 ± 6.5 revertants/plate
[2]; TA 100, −S9, 0.98 μmol/plate
  mutagenicity ratio (MR): 0.99
  number of revertants per plate: 146.3 ± 5.1 revertants/plate
[2]; TA 100, −S9, 1.96 μmol/plate
  mutagenicity ratio (MR): 1.23
  number of revertants per plate: 180.5 ± 7.8 revertants/plate
[2]; TA 100, −S9, 3.92 μmol/plate
  mutagenicity ratio (MR): 1.22
  number of revertants per plate: 179 ± 11.3 revertants/plate
[2]; TA 100, −S9, 7.85 μmol/plate
  mutagenicity ratio (MR): 1.17
  number of revertants per plate: 172.7 ± 12.5 revertants/plate
[2]; TA 100, −S9, 15.7 μmol/plate
  mutagenicity ratio (MR): 1.19
  number of revertants per plate: 175 ± 2.8 revertants/plate
[2]; with metabolic activation
  concentration above which the number of revertants is reduced by cell toxicity: Above 15.7 μmol/plate
[3]; TA 102, +S9, 0.98 μmol/plate
  mutagenicity ratio (MR): 1.03
  number of revertants per plate: 385 ± 33.1 revertants/plate
[3]; TA 102, +S9, 1.96 μmol/plate
  mutagenicity ratio (MR): 0.87
  number of revertants per plate: 323 ± 5.54 revertants/plate
[3]; TA 102, +S9, 3.92 μmol/plate
  mutagenicity ratio (MR): 1.13
  number of revertants per plate: 423.7 ± 22 revertants/plate
[3]; TA 102, +S9, 7.85 μmol/plate
  mutagenicity ratio (MR): 1.03
  number of revertants per plate: 387 ± 14.4 revertants/plate
[3]; TA 102, +S9, 15.7 μmol/plate
  mutagenicity ratio (MR): 0.8
  number of revertants per plate: 300 ± 4.9 revertants/plate
[3]; TA 102, −S9, 0.98 μmol/plate
  mutagenicity ratio (MR): 1.12
  number of revertants per plate: 222 ± 12 revertants/plate
[3]; TA 102, −S9, 1.96 μmol/plate
  mutagenicity ratio (MR): 1.22
  number of revertants per plate: 241 ± 13 revertants/plate
[3]; TA 102, −S9, 3.92 μmol/plate
  mutagenicity ratio (MR): 1.27
  number of revertants per plate: 251 ± 19.2 revertants/plate
[3]; TA 102, −S9, 7.85 μmol/plate
  mutagenicity ratio (MR): 1.17
  number of revertants per plate: 232 ± 13.1 revertants/plate
[3]; TA 102, −S9, 15.7 μmol/plate
  mutagenicity ratio (MR): 1.06
  number of revertants per plate: 210 ± 23 revertants/plate

## O=C1c2ccccc2C(=O)N1c1ccc(CO[N+](=O)[O-])cc1 [ID, 4-(1,3-dioxo-1,3-dihydro-2H-isoindol-2-yl)benzyl nitrate]
[1]
  Average inhibition % (ear edema): 37.18%
[2]; TA 100, +S9, 0.224 μmol/plate
  mutagenicity ratio (MR): 1.21
  number of revertants per plate: 157 ± 13 revertants/plate
[2]; TA 100, +S9, 0.488 μmol/plate
  mutagenicity ratio (MR): 1.42
  number of revertants per plate: 184.7 ± 16 revertants/plate
[2]; TA 100, +S9, 0.896 μmol/plate
  mutagenicity ratio (MR): 1.67
  number of revertants per plate: 216.7 ± 18 revertants/plate
[2]; TA 100, +S9, 1.8 μmol/plate
  mutagenicity ratio (MR): 1.49
  number of revertants per plate: 192.7 ± 16 revertants/plate
[2]; TA 100, +S9, 3.58 μmol/plate
  mutagenicity ratio (MR): 2.03
  number of revertants per plate: 263 ± 12.3 revertants/plate
[2]; TA 100, −S9, 0.224 μmol/plate
  mutagenicity ratio (MR): 1.27
  number of revertants per plate: 228 ± 18 revertants/plate
[2]; TA 100, −S9, 0.488 μmol/plate
  mutagenicity ratio (MR): 1.33
  number of revertants per plate: 239 ± 11.5 revertants/plate
[2]; TA 100, −S9, 0.896 μmol/plate
  mutagenicity ratio (MR): 1.29
  number of revertants per plate: 231 ± 20.2 revertants/plate
[2]; TA 100, −S9, 1.8 μmol/plate
  mutagenicity ratio (MR): 1.18
  number of revertants per plate: 212.3 ± 17 revertants/plate
[2]; TA 100, −S9, 3.58 μmol/plate
  mutagenicity ratio (MR): 1.94
  number of revertants per plate: 349 ± 5.6 revertants/plate
[3]; TA 102, +S9, 0.224 μmol/plate
  mutagenicity ratio (MR): 1.09
  number of revertants per plate: 405.7 ± 13 revertants/plate
[3]; TA 102, +S9, 0.488 μmol/plate
  mutagenicity ratio (MR): 1.16
  number of revertants per plate: 434.7 ± 21 revertants/plate
[3]; TA 102, +S9, 0.896 μmol/plate
  mutagenicity ratio (MR): 0.99
  number of revertants per plate: 370 ± 6 revertants/plate
[3]; TA 102, +S9, 1.8 μmol/plate
  mutagenicity ratio (MR): 1.06
  number of revertants per plate: 397.3 ± 9.3 revertants/plate
[3]; TA 102, +S9, 3.58 μmol/plate
  mutagenicity ratio (MR): 1.14
  number of revertants per plate: 427.3 ± 5 revertants/plate
[3]; TA 102, −S9, 0.224 μmol/plate
  mutagenicity ratio (MR): 1.31
  number of revertants per plate: 340.3 ± 9.7 revertants/plate
[3]; TA 102, −S9, 0.488 μmol/plate
  mutagenicity ratio (MR): 1.43
  number of revertants per plate: 373.5 ± 21 revertants/plate
[3]; TA 102, −S9, 0.896 μmol/plate
  mutagenicity ratio (MR): 1.5
  number of revertants per plate: 391.2 ± 6.3 revertants/plate
[3]; TA 102, −S9, 1.8 μmol/plate
  mutagenicity ratio (MR): 1.87
  number of revertants per plate: 486.8 ± 20 revertants/plate
[3]; TA 102, −S9, 3.58 μmol/plate
  mutagenicity ratio (MR): 1.62
  number of revertants per plate: 420 ± 8.6 revertants/plate
